Structures are written as SMILES.

One data set has as its system EGFR and erbB2 kinases. As to conditions: Rusnak et al., 2001b; Xia et al., 2002; cited from earlier work.
Data set [1] has as its system tumor cells overexpressing EGFR or erbB2. As to conditions: Rusnak et al., 2001b; Xia et al., 2002; cited from earlier work.
For data set [2], the system named is MCF-7 human breast cancer cells. Put plainly: Cell growth, MTT tetrazolium dye assay. The data set is classed as cell-based. As to conditions: 1-10 uM. On the procedure:
(§1) The effect of a combination of lapatanib with a Bcl-2 inhibitor (HA14-1) on the growth of MCF-7 human breast cancer cells, a HER-2/neu transfected MCF-7 cell line and a tamoxifen (TAM) resistant MCF-7 cell line was examined. Cell growth was determined using the MTT tetrazolium dye assay. Cells were dosed with Lapatinib and HA14-1 as monotherapies.
For orientation: Formazan colour is commonly taken as a measure of viable cells.

In data set [3] the test system is HER-2/neu transfected MCF-7 cell line. Put plainly: Cell growth, MTT tetrazolium dye assay. The following applies: 1-10 uM. The data set is classed as cell-based, human. The method, then: as §1
Data set [4] concerns tamoxifen (TAM) resistant MCF-7 cell line. Nature of the data set: Cell growth, MTT tetrazolium dye assay. It counts as cell-based, human. The following applies: 1-10 uM. The method, then:
as §1

The next data set deals with BT474 tumors. Put plainly: BT474 vs. Lapatinib and Docetaxel Combination (mice with BT474 tumors). The data set is classed as in vivo. On the procedure: Mice with BT474 tumors were administered lapatinib alone (200 and 100 mg/kg; SID×21 Days, or 2 days and 1 day before docetaxel) and in combination with docetaxel (25 and 50 mg/kg IP, once weekly×3 weeks).
In the first experiment there were no deaths, and in the second experiment there was one death in a group of eight mice receiving docetaxel (25 mg/kg) and lapatinib (200 mg/kg×21 days). All surviving mice rapidly regained body weight when dosing was completed. The treatment groups and results follow.

Turning to `CS(=O)(=O)CCNCc1ccc(-c2ccc3ncnc(Nc4ccc(OCc5cccc(F)c5)c(Cl)c4)c3c2)o1` [GW572016, N-{3-chloro-4-[(3-fluorobenzyl)oxy]phenyl}-6-[5-({[2-(methanesulphonyl)ethyl]amino}methyl)-2-furyl]-4-quinazolinamine], the “Kinase inhibition in human xenograft studies” value with EGFR and erbB2 kinases is reported as “dose-dependent kinase inhibition”. In data set [1], the “Selectivity of tumor cell inhibition” value is reported as “selectively inhibits tumor cells overexpressing EGFR or erbB2”.
On to `CCOC(=O)C1=C(N)Oc2ccc(Br)cc2C1C(C#N)C(=O)OCC` (stereo not drawn) [HA14-1, ethyl [2-amino-6-bromo-4-(1-cyano-2-ethoxy-2oxoethyl)]4H-chromene-3-carboxylate, reference compound], for which the “Cell growth inhibition, monotherapy” value in data set [2], in data set [3] and in data set [4] was “dose-dependent growth inhibition” in each case.
With `CS(=O)(=O)CCNCc1ccc(-c2ccc3ncnc(Nc4ccc(OCc5cccc(F)c5)c(Cl)c4)c3c2)o1.Cc1ccc(S(=O)(=O)O)cc1` [lapatinib, N-{3-Chloro-4-[(3-fluorobenzyl)oxy]phenyl}-6-[5-({[2-(methanesulphonyl)ethyl]amino}methyl)-2-furyl]-4-quinazolinamine ditosylate monhydrate], the “% Inhibition” value with BT474 tumors (GW016-100 (100 mg/kg), sid × 21 days) is on record as 79%; in the data set with BT474 tumors (GW016-200 (200 mg/kg), sid × 21 Days), 102%; in the data set on BT474 tumors (GW016-200, twice weekly on consecutive days × 3 weeks) it was 58%. Besides, the “Cell growth inhibition, monotherapy” value in data set [2], in data set [3] and in data set [4] was “dose-dependent growth inhibition” in each case.
For the compound `CC(=O)O[C@@]12CO[C@@H]1C[C@H](O)[C@@]1(C)C(=O)[C@H](O)C3=C(C)[C@@H](OC(=O)[C@H](O)[C@@H](NC(=O)OC(C)(C)C)c4ccccc4)C[C@@](O)([C@@H](OC(=O)c4ccccc4)[C@H]21)C3(C)C` [docetaxel, (2R,3S)-N-carboxy-3-phenylisoserine,N-tert-butyl ester, 13-ester with 5β-20-epoxy-1,2α,4,7β,10β,13α-hexahydroxytax-11-en-9-one 4-acetate 2-benzoate, trihydrate], the Body weight result in the data set with BT474 tumors (25 and 50 mg/kg, after 3 weekly doses, both experiments) is reported as “caused weight loss”. For the same compound, the “% Inhibition” value with BT474 tumors (Tax-25 (25 mg/kg IP), Days 3, 10, 17) was determined as 77%; in the data set with BT474 tumors (Tax-50 (50 mg/kg IP), Days 3, 10, 17), 98%. Besides, in the data set with BT474 tumors (docetaxel at 50 mg/kg, both experiments), the “Efficacy against BT474 tumors (in words)” value is on record as “highly effective”.

The term % Inhibition denotes the relative decrease from the control value, in per cent.

The record behind these values is patent publication US20090317383A1, “CANCER TREATMENT METHOD” (priority 2004, published 2009).
